Experiments:
[1] = Highest frequency of moderate liver toxicity observed during clinical trials, expressed as a percentage. [column '% BIOL' in source]; conditions: human
[2] = Highest frequency of acute liver toxicity observed during clinical trials, expressed as a percentage. [column '% AIGUE' in source]; conditions: human
[3] = human, serum
[4] = human, serum; remark: listed apart in the source
[5] = human
[6] = human; remark: listed apart in the source
[7] = human; remark: listed apart in the source
[8] = human, serum, 4383 h
[9] = human; remark: listed apart in the source
[10] = human; remark: listed apart in the source
[11] = human; remark: listed apart in the source
[12] = human; remark: listed apart in the source
[13] = human; remark: listed apart in the source
[14] = human; remark: listed apart in the source
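Wherever Hepatotoxicity (association with vascular disease) is given: count of indexed literature references reporting vascular liver injury in humans, e.g. peliosis hepatitis, hepatic veno-occlusive disease or Budd-Chiari syndrome.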
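Wherever Hepatotoxicity (benign tumour) is given: value is a count of indexed literature references citing a benign tumour confirmed by histopathology.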
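Wherever Hepatotoxicity (choleostasis) is given: human cholestatic liver injury, shown by histopathology or by peak ALT or AST elevation over alkaline phosphatase ratio below 2, value counts indexed literature reports.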
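Wherever Hepatotoxicity (chronic liver disease) is given: chronic liver injury confirmed by histopathology or persistently raised serum aminotransferase activity beyond 6 months, value given as the count of indexed literature references.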
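Wherever Hepatotoxicity (cirrhosis) is given: value is a count of indexed literature references reporting cirrhosis confirmed by histopathology.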
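Wherever Hepatotoxicity (cytolytic) is given: human cytolytic liver injury, shown by histopathology or by a ratio above 5 of peak ALT or AST elevation to alkaline phosphatase elevation, value counts indexed references.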
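Wherever Hepatotoxicity (granulomatous hepatitis) is given: value is a count of indexed literature references reporting granulomatous liver disease confirmed by histopathology.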
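Wherever Hepatotoxicity (malignant tumour) is given: malignant tumour confirmed by histopathology, value gives the count of indexed literature references reporting it.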
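Wherever Hepatotoxicity (severe hepatitis) is given: human clinical data: severe hepatitis, meaning potentially life-threatening liver failure or clinically observed cases, the value counts how many indexed literature references report it.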
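Wherever Hepatotoxicity (steatosis) is given: steatosis confirmed by histopathology, value is the count of indexed references.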

Row | Compound | Hepatotoxicity (moderate) [1] | Hepatotoxicity (acute) [2] | Hepatotoxicity (moderate) [3] | Hepatotoxicity (acute) [4] | Hepatotoxicity (cytolytic) [5] | Hepatotoxicity (choleostasis) [6] | Hepatotoxicity (severe hepatitis) [7] | Hepatotoxicity (chronic liver disease) [8] | Hepatotoxicity (cirrhosis) [9] | Hepatotoxicity (granulomatous hepatitis) [10] | Hepatotoxicity (association with vascular disease) [11] | Hepatotoxicity (steatosis) [12] | Hepatotoxicity (malignant tumour) [13] | Hepatotoxicity (benign tumour) [14] | Hepatotoxicity (moderate) ([1]; Liver) | Hepatotoxicity (acute) ([2]; Liver) | Hepatotoxicity (cytolytic) ([5]; Liver) | Hepatotoxicity (choleostasis) ([6]; Liver) | Hepatotoxicity (severe hepatitis) ([7]; Liver) | Hepatotoxicity (granulomatous hepatitis) ([10]; Liver)
1 | CCCC(=O)O[C@H]1[C@H](C)O[C@@H](O[C@H]2[C@H](N(C)C)[C@@H](O)[C@H](O[C@H]3[C@@H](CC=O)C[C@@H](C)[C@@H](O)/C=C/C=C/C[C@@H](C)OC(=O)C[C@@H](O)[C@@H]3OC)O[C@@H]2C)C[C@@]1(C)OC(=O)CC [ROKITAMYCIN] | 5% | 0% | 4 | 0 | 0 | 0 | 0 | 0 | 0 | 0 | 0 | 0 | 0 | 0 |  |  |  |  |  | 
2 | [Se] | 0% | 0% | 0 | 0 | 0 | 0 | 0 | 0 | 0 | 0 | 0 | 1 | 0 | 0 |  |  |  |  |  | 
3 | Cc1ccc(Cl)c(Nc2ccccc2C(=O)O)c1Cl [MECLOFENAMIC ACID] | 0% | 0% | 2 | 0 | 0 | 0 | 0 | 0 | 0 | 0 | 0 | 0 | 0 | 0 |  |  |  |  |  | 
4 | O=C(Cn1ccnc1[N+](=O)[O-])NCc1ccccc1 [BENZNIDAZOLE] | 0% | 0% | 0 | 1 | 0 | 0 | 0 | 0 | 0 | 0 | 0 | 0 | 0 | 0 |  |  |  |  |  | 
5 | CN1C(CCl)Nc2cc(Cl)c(S(N)(=O)=O)cc2S1(=O)=O (stereo not given) [METHYCLOTHIAZIDE] | 0% | 0% | 1 | 0 | 0 | 0 | 0 | 0 | 0 | 0 | 0 | 0 | 0 | 0 |  |  |  |  |  | 
6 | O=C(NCCN1CCC(n2c(=O)[nH]c3cc(Cl)ccc32)CC1)c1ccc(F)cc1 [HALOPEMIDE] | 27% | 0% | 1 | 0 | 0 | 0 | 0 | 0 | 0 | 0 | 0 | 0 | 0 | 0 |  |  |  |  |  | 
7 | NCCC(O)(P(=O)(O)O)P(=O)(O)O [PAMIDRONIC ACID] | 2.7% | 0% | 3 | 0 | 0 | 0 | 0 | 0 | 0 | 0 | 0 | 0 | 0 | 0 |  |  |  |  |  | 
8 | CC[C@H]1OC(=O)[C@H](C)[C@@H](O[C@H]2C[C@@](C)(OC)[C@@H](O)[C@H](C)O2)[C@H](C)[C@@H](O[C@@H]2O[C@H](C)C[C@H](N(C)C)[C@H]2O)[C@](C)(O)C[C@@H](C)[C@@H]2N[C@@H](COCCOC)O[C@H]([C@H]2C)[C@]1(C)O [DIRITHROMYCIN] | 28.6% | 0% | 3 | 0 | 0 | 0 | 0 | 0 | 0 | 0 | 0 | 0 | 0 | 0 |  |  |  |  |  | 
9 | CC1CCCC(C)N1CCCC(O)(c1ccccc1)c1ccccn1 (stereo not given) [PIRMENOL] | 5.3% | 0% | 1 | 0 | 0 | 0 | 0 | 0 | 0 | 0 | 0 | 0 | 0 | 0 |  |  |  |  |  | 
10 | CCN1CCN(C(=O)N[C@@H](C(=O)N[C@]2(OC)C(=O)N3C(C(=O)O)=C(CSc4nnnn4C)CS[C@@H]32)[C@H](C)O)C(=O)C1=O [CEFBUPERAZONE] | 6.4% | 0% | 2 | 0 | 0 | 0 | 0 | 0 | 0 | 0 | 0 | 0 | 0 | 0 |  |  |  |  |  | 
11 | CO[C@H]1[C@@H](O)[C@H](N)[C@@H](O[C@H]2O[C@H]([C@H](C)N)CC[C@H]2N)[C@H](O)[C@@H]1N(C)C(=O)CN [ASTROMICIN] | 7.3% | 0% | 1 | 0 | 0 | 0 | 0 | 0 | 0 | 0 | 0 | 0 | 0 | 0 |  |  |  |  |  | 
12 | CN1CCC(=C2c3ccccc3CC(=O)c3sccc32)CC1 [KETOTIFEN] | 0% | 0% | 0 | 1 | 0 | 0 | 0 | 0 | 0 | 0 | 0 | 0 | 0 | 0 |  |  |  |  |  | 
13 | CN(C)CCN1C(=O)c2cccc3cc(N)cc(c23)C1=O [AMONAFIDE] | 44% | 0% | 5 | 0 | 0 | 0 | 0 | 0 | 0 | 0 | 0 | 0 | 0 | 0 |  |  |  |  |  | 
14 | CCOc1ccccc1OCC1CNCCO1 (stereo not given) [VILOXAZINE] |  |  | 2 | 1 |  |  |  | 0 | 0 |  | 0 | 0 | 0 | 0 | 0% | 0% | 1 | 0 | 0 | 0
15 | CC[C@H]1OC(=O)[C@H](C)[C@@H](O[C@H]2C[C@@](C)(OC)[C@@H](O)[C@H](C)O2)[C@H](C)[C@@H](O[C@@H]2O[C@H](C)C[C@H](N(C)C)[C@H]2O)[C@](C)(O)C[C@](C)(F)C(=O)[C@H](C)[C@@H](O)[C@]1(C)O [FLURITHROMYCIN] | 3.6% | 0% | 1 | 0 | 0 | 0 | 0 | 0 | 0 | 0 | 0 | 0 | 0 | 0 |  |  |  |  |  | 

— ChEMBL document CHEMBL3137667, “[Drug-induced liver injury; fourteenth updated edition of the bibliographic database of liver injuries and related drugs]” (Gastroenterol Clin Biol, 2004)
